Test [1] addresses T1, Fatty-acid amide hydrolase 1 (Homo sapiens, UniProt O00519).
T1 sequence (O00519 whole entry): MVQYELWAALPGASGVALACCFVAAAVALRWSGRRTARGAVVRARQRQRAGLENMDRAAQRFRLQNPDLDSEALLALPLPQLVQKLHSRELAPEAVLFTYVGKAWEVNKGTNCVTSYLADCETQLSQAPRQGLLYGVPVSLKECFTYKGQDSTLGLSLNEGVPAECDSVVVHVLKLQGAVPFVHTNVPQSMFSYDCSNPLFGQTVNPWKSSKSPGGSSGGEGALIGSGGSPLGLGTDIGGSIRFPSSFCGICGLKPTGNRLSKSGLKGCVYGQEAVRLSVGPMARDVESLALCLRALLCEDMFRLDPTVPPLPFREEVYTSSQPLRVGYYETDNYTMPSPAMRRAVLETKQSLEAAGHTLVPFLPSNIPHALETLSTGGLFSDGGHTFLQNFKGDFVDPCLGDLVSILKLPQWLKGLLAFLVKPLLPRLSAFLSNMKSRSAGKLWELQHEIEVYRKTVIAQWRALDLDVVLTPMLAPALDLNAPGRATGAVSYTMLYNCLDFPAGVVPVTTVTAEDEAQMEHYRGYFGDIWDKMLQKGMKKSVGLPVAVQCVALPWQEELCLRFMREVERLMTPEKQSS
The test can be described thus: Inhibition of human recombinant FAAH.

Test [2] can be described thus: Selectivity for rat FAAH over triacylglycerol hydrolase.
Test [3] has as its target Granzyme B (Homo sapiens, UniProt P10144). In words: Inhibition of granzyme B.
A short description of test [4]: Inhibition of post-glutamyl peptide hydrolase-like activity of human 20S proteasome.
Test [5] in a line: Inhibition of trypsin-like activity of human 20S proteasome.
The test system of test [6] is Hamster. In words: Efficacy in po dosed hamster acute lung injury model. The test is classed as functional. To be noted: Cricetinae.
Test [7] concerns the target Plasma kallikrein (Homo sapiens, UniProt P03952). The test can be described thus: Inhibition of kallikrein.
In test [8] the target is Coagulation factor X (Homo sapiens, UniProt P00742). The test can be described thus: Inhibition of human factor 10a.
Test [9] can be described thus: Inhibition of dengue virus NS3 protease.
Test [10] addresses T2, Fatty-acid amide hydrolase 1 (Rattus norvegicus, UniProt P97612).
T2 sequence (P97612 whole entry): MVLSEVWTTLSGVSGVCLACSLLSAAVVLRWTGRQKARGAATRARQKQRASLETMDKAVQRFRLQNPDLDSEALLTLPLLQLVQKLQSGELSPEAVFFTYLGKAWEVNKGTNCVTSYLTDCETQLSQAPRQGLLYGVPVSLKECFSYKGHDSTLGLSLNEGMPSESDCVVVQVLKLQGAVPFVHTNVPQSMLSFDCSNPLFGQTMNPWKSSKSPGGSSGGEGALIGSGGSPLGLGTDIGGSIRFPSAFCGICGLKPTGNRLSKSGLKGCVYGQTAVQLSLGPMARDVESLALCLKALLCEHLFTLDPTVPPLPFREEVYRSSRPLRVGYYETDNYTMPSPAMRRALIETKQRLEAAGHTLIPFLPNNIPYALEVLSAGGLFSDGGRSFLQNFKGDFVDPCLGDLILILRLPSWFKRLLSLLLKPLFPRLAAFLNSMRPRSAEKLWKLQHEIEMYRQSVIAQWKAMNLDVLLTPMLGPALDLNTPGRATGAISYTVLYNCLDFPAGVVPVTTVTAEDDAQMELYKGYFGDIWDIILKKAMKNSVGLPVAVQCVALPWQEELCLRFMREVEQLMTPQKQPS

SMILES strings stand for the structures. Where a SMILES comes first, the peptide text is derived from it. [ ]: non-standard residue; d: D form. The star is where a group is joined. Nle = CCCC[C@H](N)C(=O)O; Bz = O=C(c1ccccc1)* Bounds are passed on as bounds.

Chain of Granzyme B (P10144 whole entry): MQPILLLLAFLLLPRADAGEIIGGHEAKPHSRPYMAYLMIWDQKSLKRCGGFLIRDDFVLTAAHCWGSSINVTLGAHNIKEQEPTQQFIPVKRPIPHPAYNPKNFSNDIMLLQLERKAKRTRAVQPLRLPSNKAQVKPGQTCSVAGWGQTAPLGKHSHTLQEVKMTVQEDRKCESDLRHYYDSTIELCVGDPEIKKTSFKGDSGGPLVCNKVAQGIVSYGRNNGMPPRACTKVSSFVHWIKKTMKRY
Chain of Plasma kallikrein (P03952 20-390 limits assumed): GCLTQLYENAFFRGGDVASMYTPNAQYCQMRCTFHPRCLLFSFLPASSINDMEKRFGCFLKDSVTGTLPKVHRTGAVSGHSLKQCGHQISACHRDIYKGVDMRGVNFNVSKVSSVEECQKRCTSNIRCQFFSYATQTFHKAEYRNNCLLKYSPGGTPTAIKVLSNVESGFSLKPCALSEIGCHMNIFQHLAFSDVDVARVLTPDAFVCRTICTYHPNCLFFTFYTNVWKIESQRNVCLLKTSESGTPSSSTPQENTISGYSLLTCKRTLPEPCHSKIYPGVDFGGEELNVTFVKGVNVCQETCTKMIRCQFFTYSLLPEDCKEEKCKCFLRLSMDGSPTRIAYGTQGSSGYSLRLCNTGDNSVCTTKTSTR
Chain of Plasma kallikrein (P03952 391-638 limits assumed): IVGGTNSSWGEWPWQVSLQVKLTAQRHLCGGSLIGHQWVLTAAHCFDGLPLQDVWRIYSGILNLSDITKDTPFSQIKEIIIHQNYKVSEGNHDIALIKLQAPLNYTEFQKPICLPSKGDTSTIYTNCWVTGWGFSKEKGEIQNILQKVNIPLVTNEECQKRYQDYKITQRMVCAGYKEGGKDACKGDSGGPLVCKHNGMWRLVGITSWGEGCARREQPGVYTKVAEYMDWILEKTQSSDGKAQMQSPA
Chain of Coagulation factor X (P00742 41-179 limits assumed): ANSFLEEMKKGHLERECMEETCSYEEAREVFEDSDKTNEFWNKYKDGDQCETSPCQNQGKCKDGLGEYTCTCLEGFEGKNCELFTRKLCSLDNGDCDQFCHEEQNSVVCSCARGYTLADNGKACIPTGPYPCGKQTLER
Chain of Coagulation factor X (P00742 235-488 limits assumed): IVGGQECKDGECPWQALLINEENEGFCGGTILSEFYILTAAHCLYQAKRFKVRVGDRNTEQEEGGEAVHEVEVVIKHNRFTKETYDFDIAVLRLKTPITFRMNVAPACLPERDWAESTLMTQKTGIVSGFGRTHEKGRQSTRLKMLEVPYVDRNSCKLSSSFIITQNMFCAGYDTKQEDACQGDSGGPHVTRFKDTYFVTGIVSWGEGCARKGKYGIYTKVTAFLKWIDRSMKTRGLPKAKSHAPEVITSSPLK

As to `CCCCCCCC/C=C\CCCCCCCC(=O)c1nc2ncccc2o1`, in test [1], the Ki was found to be 13 nM. Also, in test [2], the Selectivity ratio is 30.

Take `CC[C@H](C)[C@H](NC(C)=O)C(=O)N[C@H]1CCc2cccc3c2N(C1=O)[C@H](C(=O)N[C@H](C=O)CC(=O)O)C3`: the Ki in test [3] turned out to be 8 nM.

As for `Cc1ccc(S(=O)(=O)N[C@@H](CC(=O)NCC(C)(C)C)C(=O)N[C@@H](C)C(=O)N[C@@H](CC(C)C)C(=O)c2nnc(-c3ccc(N(C)C)cc3)o2)cc1`, the inhibition constant (Ki) in [4] is > 300000 nM; in [5], 290000 nM.

In [6], `CC(C)[C@H](NC(=O)Cn1c(-c2ccc(F)cc2)ncc(N)c1=O)C(=O)c1nnc(C(C)(C)c2ccccc2)o1` had a 50% effective dose (ED50) of 10 mg/kg.

As for `CC[C@H](C)[C@H](NC(C)=O)C(=O)N[C@H]1CCc2cccc3c2N(C1=O)[C@H](C(=O)N[C@@H](CC(=O)O)C(=O)c1nnc(-c2ccccc2)o1)C3`, the Ki in test [3] was determined as 7 nM.

On to `N=C(N)NCCC[C@H](NC(=O)CNC(=O)[C@@H](CCCNC(=N)N)NS(=O)(=O)CCc1ccccc1)C(=O)c1nccs1`, for which the IC50 in test [7] turned out to be 120 nM; in test [8] it was 1 nM.

In test [9], `CCCC[C@H](NC(=O)c1ccccc1)C(=O)N[C@@H](CCCCN)C(=O)N[C@@H](CCCNC(=N)N)C(=O)N[C@H](CCCNC(=N)N)B(O)O` had a Ki of 43 nM.

As to `N#Cc1cnc(C(=O)CCc2ccc(-c3ccccc3)cc2)o1`, the Ki in [1] came to 0.26 nM; in [10], 0.2 nM.

Take `CCCC[C@H](NC(=O)c1ccccc1)C(=O)N[C@@H](CCCCN)C(=O)N[C@@H](CCCNC(=N)N)C(=O)N[C@H](C=O)CCCNC(=N)N` (Bz-[Nle]KRR-aldehyde): the affinity in test [9] corresponds to a Ki of 5800 nM.

With `CCCC[C@H](NC(=O)c1ccccc1)C(=O)N[C@@H](CCCCN)C(=O)N[C@@H](CCCNC(=N)N)C(=O)N[C@@H](CCCNC(=N)N)C(=O)c1nccs1`, in test [9], the Ki came to 43000 nM.

Take `CC[C@H](C)[C@H](NC(C)=O)C(=O)N[C@H]1CCc2cccc3c2N(C1=O)[C@H](C(=O)N[C@@H](CC(=O)O)C(=O)c1nc2ccccc2s1)C3`: the Ki in test [3] is 85 nM.

Turning to `Cc1cccc(Cc2nnc(C(=O)[C@@H](NC(=O)Cn3c(-c4ccc(F)cc4)ncc(N)c3=O)C(C)C)o2)c1`, the ED50 in test [6] amounted to 13 mg/kg.

Take `N=C(N)NCCC[C@H](NC(=O)CNC(=O)[C@@H](CCCNC(=N)N)NS(=O)(=O)CCc1ccccc1)C(=O)c1nc2ccccc2s1`: the figures for the IC50 in [7] and in test [8] were 29 nM and 2 nM, respectively.

`CCCC[C@H](NC(=O)c1ccccc1)C(=O)N[C@@H](CCCCN)C(=O)N[C@@H](CCCNC(=N)N)C(=O)N[C@@H](CCCNC(=N)N)C(=O)c1nc2ccccc2o1` had an inhibition constant (Ki) in test [9] of 83000 nM.

With `CCCCCCCC/C=C\CCCCCCCC(=O)c1nc2ccccc2o1`, in test [1], the inhibitory constant (Ki) was found to be 73 nM.

`Cc1ccc(S(=O)(=O)N[C@@H](CC(=O)NCC(C)(C)C)C(=O)N[C@](C)(CO)C(=O)N[C@@H](CC(C)C)C(=O)c2nnc(-c3ccccc3)o2)cc1`: the Ki in [4] and in [5] was > 900000 nM in each case.
